Patent publication KR19980042868A, “인슐린-유사 작용을 갖는 이노시톨글리칸” (피셔 한스-위르겐, priority 1996, dated 1998)

How the values were obtained:
[1] = tested on: rat adipocytes (랫트 지방 세포); assay: Lipogenesis (지방형성): incorporation of D-[3-3H]glucose into toluene-soluble lipids in isolated rat adipocytes; type: cell-based; settings: 90 min, 37°C; for EC50: concentration giving 50% of the compound's own maximum stimulation; for %Insmax: maximum insulin stimulation ratio (with/without insulin) = 100%
[2] = tested on: rat adipocytes (랫트 지방 세포); assay: Glucose transport (글루코오스 이송): uptake of 2-[3H]-deoxyglucose in isolated rat adipocytes; type: cell-based; settings: 15 min, 37°C, then 2-[3H]-deoxyglucose at room temperature; for EC50: concentration giving 50% of the compound's own maximum stimulation; for %Insmax: maximum insulin stimulation ratio = 100%

Substance	EC50 [1] [µM]	EC50 [2] [µM]	%Insmax [1] [%]	%Insmax [2] [%]
HO-PO(H)O-6Manα1(Manα1-2)-2Manα1-6Manα1-4GluNβ1-6(D)이노시톨-1,2-(사이클릭)-포스페이트 [화합물 B]	8.2	8.1	77	41
HO-PO(H)O-6Manα(Manα1-2)-2Manα1-6Manα1-4GluNβ1-6(L)이노시톨-1,2-(사이클릭)-포스페이트 [화합물 A]	7	8	59	28
HO-PO(H)O-6Manα1(Manα1-2)-2Manα1-6Manα1-3GluNβ1-6(L)이노시톨-3-포스페이트 [D]	20	18	33	18
HO-PO(H)O-6Manα1(Manα1-2)-2Manα1(6-EtNP)-6Manα1(2-EtNP)-4GluNβ1-6(D)이노시톨-1,2-(사이클릭)-포스페이트	60	30	48	34
HO-PO(H)O-6Manα1-4GluNα1-6(L)이노시톨-1,2-(사이클릭)-포스페이트	15	15	25	9
HO-PO(H)O-6Manα1-4GluNα1-6(L)이노시톨	25	10	15	2

More lines, in order of falling EC50 [1], values ahead:

EC50 [1] [µM]	EC50 [2] [µM]	Substance	%Insmax [1] [%]	%Insmax [2] [%]
20	50	HO-PO(H)O-6Manα1-6-Manα1-6Manα1-6Manα1-3GluNβ1-6(L)이노시톨-3-포스페이트 [I]	18	14
15	25	HO-PO(H)O-6Manα1(Manα1-2)-2Manα1-6Manα1-4GluNα1-6(L)이노시톨-2-포스페이트 [F]	53	26
7	10	HO-PO(H)O-6Manα1(Manα1-2)-2Manα1-6Manα1-4GluNβ1-6(D)이노시톨-1,2-(사이클릭)-티오포스페이트 [C]	64	29
